From PMC7044277 (Nature Communications, 2020) come the findings set out here.

“And” between values parts separate entries of the source, which are not always exact repeats. Identical values can stand only once.

Holding throughout (assay type): cell-based
The target of assay [1] is T1, 320 non-olfactory GPCRs (Homo sapiens, UniProt P41231).
T1 construct: expressed in transfected cells; host or cells: HTLA cells
The following applies: receptor P2RY2; replicate values, Fig_4g.

For assay [2], the target named is 320 non-olfactory GPCRs (Homo sapiens, UniProt P32239).
Assay [3] deals with T2, 320 non-olfactory GPCRs (Homo sapiens, UniProt P43088).
T2 construct: expressed in transfected cells; host or cells: HTLA cells
Conditions: receptor PTGFR; replicate values, Fig_4g.

For assay [4], the target named is T3, 320 non-olfactory GPCRs (Homo sapiens, UniProt Q86VZ1).
T3 construct: expressed in transfected cells; host or cells: HTLA cells
The following applies: receptor P2RY8; replicate values, Fig_4g.
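Throughout, for Fold of Basal: compound tested at 1 µM final concentration.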
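Throughout, for GPCRome agonism screen response: fold over basal response of each receptor without drug.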

T1 sequence (P41231 whole entry): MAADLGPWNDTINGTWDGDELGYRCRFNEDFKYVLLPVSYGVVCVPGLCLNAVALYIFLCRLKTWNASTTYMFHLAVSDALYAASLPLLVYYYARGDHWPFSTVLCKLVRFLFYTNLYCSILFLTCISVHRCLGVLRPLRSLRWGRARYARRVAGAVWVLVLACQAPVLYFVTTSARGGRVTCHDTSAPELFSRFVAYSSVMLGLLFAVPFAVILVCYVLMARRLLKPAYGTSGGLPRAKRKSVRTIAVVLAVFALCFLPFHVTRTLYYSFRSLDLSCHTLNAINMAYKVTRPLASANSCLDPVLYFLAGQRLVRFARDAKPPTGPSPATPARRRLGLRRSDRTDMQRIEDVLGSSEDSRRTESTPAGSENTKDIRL
T3 sequence (Q86VZ1 whole entry): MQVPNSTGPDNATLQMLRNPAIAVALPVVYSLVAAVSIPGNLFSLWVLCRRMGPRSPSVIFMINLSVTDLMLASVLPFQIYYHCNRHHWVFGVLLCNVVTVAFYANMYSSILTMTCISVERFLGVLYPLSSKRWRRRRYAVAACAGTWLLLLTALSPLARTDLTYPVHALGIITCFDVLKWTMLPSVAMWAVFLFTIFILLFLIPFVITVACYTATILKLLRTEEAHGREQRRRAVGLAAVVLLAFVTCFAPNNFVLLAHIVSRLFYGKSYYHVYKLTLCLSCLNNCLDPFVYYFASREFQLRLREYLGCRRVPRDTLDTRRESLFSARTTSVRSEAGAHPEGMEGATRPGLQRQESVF
T2 sequence (P43088 whole entry): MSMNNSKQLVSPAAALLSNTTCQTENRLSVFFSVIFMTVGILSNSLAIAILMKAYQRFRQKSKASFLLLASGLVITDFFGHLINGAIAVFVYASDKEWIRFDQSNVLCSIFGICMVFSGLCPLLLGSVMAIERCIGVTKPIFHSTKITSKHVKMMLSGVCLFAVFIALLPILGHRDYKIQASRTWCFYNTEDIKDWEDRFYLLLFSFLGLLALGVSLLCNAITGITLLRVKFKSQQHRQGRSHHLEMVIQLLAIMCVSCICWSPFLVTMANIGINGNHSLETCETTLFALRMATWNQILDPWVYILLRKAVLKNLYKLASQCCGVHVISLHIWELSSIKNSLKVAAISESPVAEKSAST
Chain of 320 non-olfactory GPCRs (Homo sapiens, UniProt P32239) (P32239 whole entry): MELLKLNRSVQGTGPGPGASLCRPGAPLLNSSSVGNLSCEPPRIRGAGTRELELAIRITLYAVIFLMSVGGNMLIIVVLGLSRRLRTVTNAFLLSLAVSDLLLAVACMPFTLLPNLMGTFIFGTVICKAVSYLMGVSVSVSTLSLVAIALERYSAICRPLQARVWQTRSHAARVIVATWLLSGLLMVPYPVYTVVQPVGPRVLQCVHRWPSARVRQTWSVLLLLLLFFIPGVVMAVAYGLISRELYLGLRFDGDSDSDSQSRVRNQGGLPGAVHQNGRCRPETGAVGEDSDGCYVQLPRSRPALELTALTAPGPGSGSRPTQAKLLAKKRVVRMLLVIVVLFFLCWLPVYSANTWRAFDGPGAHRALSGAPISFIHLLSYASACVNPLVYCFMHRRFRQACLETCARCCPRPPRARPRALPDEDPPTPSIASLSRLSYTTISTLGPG

Turning to `CCOc1cccc2cc(C(C)NCC3(O)CCCCC3)oc12` (stereo not shown) [O4LE6], the “GPCRome agonism screen response” value was 1.397 and 0.7849 and 2.272 and 0.7466 in assay [1]; 0.453 and 1.129 and 0.3537 and 0.6778 in assay [3]; 0.862 and 0.8339 and 1.83 and 1.383 in assay [4]. Moreover, the “Fold of Basal” value in assay [2] was 1.067 and 0.8402 and 0.8391 and 1.015.
